≈ marks a conversion by molar mass, not a printed value. Calls of active or inactive are those of the source. The calls are words filed in the database; no cut-off is given here.
Legend:
[1] = tested on: Mycobacterium tuberculosis; assay: Antimycobacterial activity against Mycobacterium tuberculosis H37Rv ATCC 27294; format: functional
[2] = tested on: MCF7; assay: Cytotoxicity against human MCF7 cells at 650 uM; format: cell-based; conditions: mcf7, 650 µM
[3] = tested on: Mycobacterium tuberculosis; assay: Antimycobacterial activity against Mycobacterium tuberculosis H37Rv ATCC 27294 at 650 uM; format: functional, organism-based
[4] = tested on: MCF7; assay: Cytotoxicity against human MCF7 cells; format: cell-based

Row | Structure (SMILES) | MIC [1] [µM] | Activity [2] | Activity [3] | IC50 [4] [µM]
1 | C=C/C(C)=C/C[C@H]1C(=C)CC[C@@H]2[C@]1(C)C[C@@H](O)C[C@@]2(C)C(=O)O | 157 (≈ 50 µg/mL) | Not Active | – | –
2 | C=C/C(C)=C/C[C@H]1C(=C)CC[C@H]2[C@](C)(CO)C[C@H](O)C[C@]12C | – | – | inactive | 82
3 | CC(C)c1cc2c(c(O)c1O)[C@@]13CCCC(C)(C)[C@@H]1C[C@@H]2OC3=O [CARNOSOL] | – | Not Active | inactive | –
4 | COC(=O)[C@]12CCCC(C)(C)[C@@H]1CCc1cc(C(C)C)c(OC)c(O)c12 | 28 (≈ 10.1 µg/mL) | – | – | 69

Reference: ChEMBL document CHEMBL1141389, “Bioactive diterpenes from Orthosiphon labiatus and Salvia africana-lutea” (J Nat Prod, 2007)
